Laboratory results taken from patent US20090137549A1, “Novel compounds useful for the treatment of degenerative & inflamatory diseases” (priority 2006, published 2009).

Each molecule was assayed against PDE1A (Homo sapiens, UniProt P54750) (assay: PDE1A dose response, Cyclic Nucleotide Phosphodiesterase Assay Kit from Biomol (colorimetric)). Settings: purified PDE1A enzyme, 100 μM cAMP.
Format: biochemical
Description: For the dose response and further screening, we used the Cyclic Nucleotide
Phosphodiesterase Assay Kit from Biomol, a colorimetric, non-radioactive assay. The basis for the assay is the cleavage of cAMP by PDE1A. The 5′AMP is further cleaved into the nucleoside and phosphate by the enzyme 5′-nucleotidase (catnr KI-307). The phosphate released due to enzymatic cleavage is quantified using BIOMOL GREEN™ reagent (catnr AK-111) in a modified Malachite Green assay^1,2. A PDE1A inhibitor will result in a decrease of the signal.
For the enzymatic reaction a mix of 25 μL with purified PDE1A enzyme, 100 μM cAMP, 5′Nucleotidase and the compound is made in a clear 384-plate. The reaction buffer is Tris 20 mM pH 7.4, 4 μg/mL calmodulin, 3 mM MgCl2, 1.5 mM CaCl2, 0.2 mg/mL BSA and 0.001% Brij-35. After an incubation of 45 minutes at 37° C., the reaction is stopped by the addition of 50 μL BIOMOL GREEN™ reagent. After 30 minutes incubation at room temperature, the readout is performed on the Envision (absorption at 615 nm).
All compounds are tested in duplicate starting from […] followed by a 1/3 serial dilution, 8 points (20 μM-6.67 μM-2.22 μM-740 nM-247 nM-82 nM-27 nM-9 nM) in a final concentration of 1% DMSO. As the positive dose response control compound Vardenafil is used. For the calculation of z′ and PIN values 10 μM Vardenafil is used as positive control (100% inhibition) and 1% DMSO as negative control (0% inhibition).
The following compounds have been or can be prepared according to the synthetic methods described above. For the purpose of Table 7 below, PDE1A activity of each compound, which can be determined using the assay methods described herein, is expressed as follows: […]

O=C(NCc1ccc(F)cc1)N1CC(c2nc3c(cnn3C3CCCCC3)c(=O)[nH]2)C1 [Example 30, 3-(1-cyclohexyl-4-oxo-4,5-dihydro-1H-pyrazolo[3,4-d]pyrimidin-6-yl)-N-(4-fluorobenzyl)azetidine-1-carboxamide] and O=C(NCc1ccccc1)N1CC(c2nc3c(cnn3C3CCCCC3)c(=O)[nH]2)C1 [Example 31, N-benzyl-3-(1-cyclohexyl-4-oxo-4,5-dihydro-1H-pyrazolo[3,4-d]pyrimidin-6-yl)azetidine-1-carboxamide] fall in the same range of IC50: 1 to 100 nM for the first, 1 to 100 nM for the second.

First: O=C(NC1CCCC1)N1CC(c2nc3c(cnn3C3CCCCC3)c(=O)[nH]2)C1 [Example 32, 3-(1-cyclohexyl-4-oxo-4,5-dihydro-1H-pyrazolo[3,4-d]pyrimidin-6-yl)-N-cyclopentylazetidine-1-carboxamide]
Second: O=C(NC1CCOCC1)N1CC(c2nc3c(cnn3C3CCCCC3)c(=O)[nH]2)C1 [Example 47, 3-(1-cyclohexyl-4-oxo-4,5-dihydro-1H-pyrazolo[3,4-d]pyrimidin-6-yl)-N-(tetrahydro-2H-pyran-4-yl)azetidine-1-carboxamide]
The IC50 of the first is lower: 1 to 100 nM for the first, 101 to 500 nM for the second. The first is the more potent here.

N#Cc1ccc(NC(=O)N2CC(c3nc4c(cnn4C4CCCCC4)c(=O)[nH]3)C2)cc1 [Example 33, N-(4-cyanophenyl)-3-(1-cyclohexyl-4-oxo-4,5-dihydro-1H-pyrazolo[3,4-d]pyrimidin-6-yl)azetidine-1-carboxamide] and O=C(Nc1ccc(C(F)(F)F)cc1)N1CC(c2nc3c(cnn3C3CCCCC3)c(=O)[nH]2)C1 [Example 35, 3-(1-cyclohexyl-4-oxo-4,5-dihydro-1H-pyrazolo[3,4-d]pyrimidin-6-yl)-N-(4-(trifluoromethyl)phenyl)azetidine-1-carboxamide] fall in the same range of IC50: 1 to 100 nM for the first, 1 to 100 nM for the second.

CCCCNC(=O)N1CC(c2nc3c(cnn3C3CCCCC3)c(=O)[nH]2)C1 [Example 34, N-butyl-3-(1-cyclohexyl-4-oxo-4,5-dihydro-1H-pyrazolo[3,4-d]pyrimidin-6-yl)azetidine-1-carboxamide] and O=C(NCCC(F)(F)F)N1CC(c2nc3c(cnn3C3CCCCC3)c(=O)[nH]2)C1 [Example 43, 3-(1-cyclohexyl-4-oxo-4,5-dihydro-1H-pyrazolo[3,4-d]pyrimidin-6-yl)-N-(3,3,3-trifluoropropyl)azetidine-1-carboxamide] fall in the same range of IC50: 1 to 100 nM for the first, 1 to 100 nM for the second.

O=C(NCc1ccc(Cl)c(Cl)c1)N1CC(c2nc3c(cnn3C3CCCCC3)c(=O)[nH]2)C1 [Example 37, 3-(1-cyclohexyl-4-oxo-4,5-dihydro-1H-pyrazolo[3,4-d]pyrimidin-6-yl)-N-(3,4-dichlorobenzyl)azetidine-1-carboxamide] and Cc1nn(C2CCCCC2)c2nc(C3CN(C(=O)NCc4ccc(Cl)c(Cl)c4)C3)[nH]c(=O)c12 [Example 39, 3-(1-cyclohexyl-3-methyl-4-oxo-4,5-dihydro-1H-pyrazolo[3,4-d]pyrimidin-6-yl)-N-(3,4-dichlorobenzyl)azetidine-1-carboxamide] fall in the same range of IC50: 1 to 100 nM for the first, 1 to 100 nM for the second.

CC(C)(C)NC(=O)N1CC(c2nc3c(cnn3C3CCCCC3)c(=O)[nH]2)C1 [Example 38, N-tert-butyl-3-(1-cyclohexyl-4-oxo-4,5-dihydro-1H-pyrazolo[3,4-d]pyrimidin-6-yl)azetidine-1-carboxamide] and CC(C)(C)OC(=O)N1CCC(NC(=O)N2CC(c3nc4c(cnn4C4CCCCC4)c(=O)[nH]3)C2)CC1 [Example 41, tert-butyl 4-(3-(1-cyclohexyl-4-oxo-4,5-dihydro-1H-pyrazolo[3,4-d]pyrimidin-6-yl)azetidine-1-carboxamido)piperidine-1-carboxylate] fall in the same range of IC50: 1 to 100 nM for the first, 1 to 100 nM for the second.

Compared with CS(=O)(=O)N1CCC(NC(=O)N2CC(c3nc4c(cnn4C4CCCCC4)c(=O)[nH]3)C2)CC1 [Example 40, 3-(1-cyclohexyl-4-oxo-4,5-dihydro-1H-pyrazolo[3,4-d]pyrimidin-6-yl)-N-(1-(methylsulfonyl)piperidin-4-yl)azetidine-1-carboxamide], COc1ccc(S(=O)(=O)N2CCCC(c3nc4c(cnn4C4CCCCC4)c(=O)[nH]3)C2)cc1 (stereo not drawn) [Example 51, 1-cyclohexyl-6-(1-(4-methoxyphenylsulfonyl)piperidin-3-yl)-1H-pyrazolo[3,4-d]pyrimidin-4(5H)-one] is higher in IC50: 1 to 100 nM for the first, 101 to 500 nM for the second. The first is the more potent here.

First: Cc1nn(C2CCCCC2)c2nc(C3CN(C(=O)N[C@@H](C)c4ccccc4)C3)[nH]c(=O)c12 [Example 42, (S)-3-(1-cyclohexyl-3-methyl-4-oxo-4,5-dihydro-1H-pyrazolo[3,4-d]pyrimidin-6-yl)-N-(1-phenylethyl)azetidine-1-carboxamide]
Second: COc1cccc(C(=O)N2CC(c3nc4c(c(C)nn4C4CCCCC4)c(=O)[nH]3)C2)c1 [Example 52, 1-cyclohexyl-6-(1-(3-methoxybenzoyl)azetidin-3-yl)-3-methyl-1H-pyrazolo[3,4-d]pyrimidin-4(5H)-one]
The IC50 of the first is lower: 1 to 100 nM for the first, 101 to 500 nM for the second. The first is the more potent here.

First: COc1ccc(S(=O)(=O)N2CCCC(c3nc4c(cnn4C4CCCCC4)c(=O)[nH]3)C2)cc1OC (stereo not drawn) [Example 44, 1-cyclohexyl-6-(1-(3,4-dimethoxyphenylsulfonyl)piperidin-3-yl)-1H-pyrazolo[3,4-d]pyrimidin-4(5H)-one]
Second: COc1ccc(S(=O)(=O)N2CCCC(c3nc4c(c(C)nn4C4CCCCC4)c(=O)[nH]3)C2)cc1 (stereo not drawn) [Example 56, 1-cyclohexyl-6-(1-(4-methoxyphenylsulfonyl)piperidin-3-yl)-3-methyl-1H-pyrazolo[3,4-d]pyrimidin-4(5H)-one]
The IC50 of the first is lower: 1 to 100 nM for the first, 101 to 500 nM for the second. The first is the more potent here.

CN(C)c1cccc(C(=O)N2CCCC(c3nc4c(cnn4C4CCCCC4)c(=O)[nH]3)C2)c1 (stereo not drawn) [Example 45, 1-cyclohexyl-6-(1-(3-(dimethylamino)benzoyl)piperidin-3-yl)-1H-pyrazolo[3,4-d]pyrimidin-4(5H)-one] and CN(C)c1ccc(C(=O)N2CCCC(c3nc4c(cnn4C4CCCCC4)c(=O)[nH]3)C2)cc1 (stereo not drawn) [Example 60, 1-cyclohexyl-6-(1-(4-(dimethylamino)benzoyl)piperidin-3-yl)-1H-pyrazolo[3,4-d]pyrimidin-4(5H)-one] fall in the same range of IC50: 101 to 500 nM for the first, 101 to 500 nM for the second.

COc1ccc(S(=O)(=O)N2CCCC(c3nc4c(cnn4-c4ccccc4)c(=O)[nH]3)C2)cc1 (stereo not drawn) [Example 46, 6-(1-(4-methoxyphenylsulfonyl)piperidin-3-yl)-1-phenyl-1H-pyrazolo[3,4-d]pyrimidin-4(5H)-one] and COc1ccccc1C(=O)N1CCCC(c2nc3c(cnn3C3CCCCC3)c(=O)[nH]2)C1 (stereo not drawn) [Example 48, 1-cyclohexyl-6-(1-(2-methoxybenzoyl)piperidin-3-yl)-1H-pyrazolo[3,4-d]pyrimidin-4(5H)-one] fall in the same range of IC50: 101 to 500 nM for the first, 101 to 500 nM for the second.

O=C(c1cccc2c1OCO2)N1CCCC(c2nc3c(cnn3C3CCCCC3)c(=O)[nH]2)C1 (stereo not drawn) [Example 49, 6-(1-(benzo[d][1,3]dioxole-4-carbonyl)piperidin-3-yl)-1-cyclohexyl-1H-pyrazolo[3,4-d]pyrimidin-4(5H)-one] and COc1cccc(C(=O)N2CCCC(c3nc4c(cnn4C4CCCCC4)c(=O)[nH]3)C2)c1 (stereo not drawn) [Example 53, 1-cyclohexyl-6-(1-(3-methoxybenzoyl)piperidin-3-yl)-1H-pyrazolo[3,4-d]pyrimidin-4(5H)-one] fall in the same range of IC50: 101 to 500 nM for the first, 101 to 500 nM for the second.

Cc1nn(-c2ccc(F)cc2)c2nc(C3CN(C(=O)NC4CCCCC4)C3)[nH]c(=O)c12 [Example 50, N-cyclohexyl-3-(1-(4-fluorophenyl)-3-methyl-4-oxo-4,5-dihydro-1H-pyrazolo[3,4-d]pyrimidin-6-yl)azetidine-1-carboxamide] and Cc1nn(C2CCCCC2)c2nc(C3CCCN(C(=O)c4ccc(N(C)C)cc4)C3)[nH]c(=O)c12 (stereo not drawn) [Example 59, 1-cyclohexyl-6-(1-(4-(dimethylamino)benzoyl)piperidin-3-yl)-3-methyl-1H-pyrazolo[3,4-d]pyrimidin-4(5H)-one] fall in the same range of IC50: 101 to 500 nM for the first, 101 to 500 nM for the second.

O=C(c1ccccc1OC(F)(F)F)N1CCCC(c2nc3c(cnn3C3CCCCC3)c(=O)[nH]2)C1 (stereo not drawn) [Example 54, 1-cyclohexyl-6-(1-(2-(trifluoromethoxy)benzoyl)piperidin-3-yl)-1H-pyrazolo[3,4-d]pyrimidin-4(5H)-one] and COc1ccccc1C(=O)N1CCCC(c2nc3c(c(C)nn3C3CCCCC3)c(=O)[nH]2)C1 (stereo not drawn) [Example 57, 1-cyclohexyl-6-(1-(2-methoxybenzoyl)piperidin-3-yl)-3-methyl-1H-pyrazolo[3,4-d]pyrimidin-4(5H)-one] fall in the same range of IC50: 101 to 500 nM for the first, 101 to 500 nM for the second.

CCCCS(=O)(=O)Nc1cccc(C(=O)N2CCCC(c3nc4c(c(C)nn4C4CCCCC4)c(=O)[nH]3)C2)c1 (stereo not drawn) [Example 55, N-(3-(3-(1-cyclohexyl-3-methyl-4-oxo-4,5-dihydro-1H-pyrazolo[3,4-d]pyrimidin-6-yl)piperidine-1-carbonyl)phenyl)butane-1-sulfonamide] and Cc1nn(C2CCCCC2)c2nc(C3CCCN(C(=O)c4cccc5c4OC(F)(F)O5)C3)[nH]c(=O)c12 (stereo not drawn) [Example 58, 1-cyclohexyl-6-(1-(2,2-difluorobenzo[d][1,3]dioxole-4-carbonyl)piperidin-3-yl)-3-methyl-1H-pyrazolo[3,4-d]pyrimidin-4(5H)-one] fall in the same range of IC50: 101 to 500 nM for the first, 101 to 500 nM for the second.
